“And” between values parts separate entries of the source, which are not always exact repeats. Identical values can stand only once. “Also recorded” adds a separate entry of the source. Like-named read-outs stand apart in the source and are kept apart here.
Assay: Plasma pharmacokinetics of SHR9146 in mice (LC-MS/MS, non-compartmental analysis)
Assay type: in vivo, ICR mice
Conditions: for AUC(0-t): read-out: AUC0-t; for half-life: read-out: t1/2 (converted); for Cmax: read-out: Cmax; for Tmax: read-out: Tmax
Method: ICR mice with body weight 16–26 g were supplied by Shanghai Lingchang Biotechnology Co., Ltd. (animal breeding license number SCXK (Shanghai) 2013-0018) and housed at Shanghai Institute of Materia Medica, Chinese Academy of Sciences [animal use license number SYXK (Shanghai) 2015-0027]. The mice used in this study were fasted overnight for 12 h but had free access to water. Food was supplied 4 h post-dose. All experiments in this study were conducted in accordance with the Guidelines for the Care and Use of Laboratory Animals of Shanghai Institute of Materia Medica, Chinese Academy of Sciences.
A total of 30 mice were randomly assigned into five groups with equal numbers, males and females. One group was intravenously administrated with 5 mg/kg SHR9146 dissolved in […] plus 95% saline (adjusted pH to 4.0) under sterile conditions. The remaining four groups were administered respectively with a single dose of 20 , 40, or 80 mg/kg or multiple doses of 20 mg/kg twice daily for 7 days, by oral gavage of SHR9146 dissolved in 0.5% CMC-Na. Blood samples were obtained from the fossa orbitalis vein at 15 and 30 min and 1.0, 2.0, 4.0, 6.0, 8.0, 10.0, and 24.0 h after oral gavage administration. An additional 5-min time point was included for iv injection, as well as the pre-drug administration time points on the fifth, sixth, and seventh days in the multiple-dose group. The blood samples were collected in EDTA K2 anticoagulant blood collection tubes and centrifuged at 1,000 rpm for 5 min at 4°C. The supernatant plasma samples were thus produced.
Briefly as follows, an aliquot of 25-μL plasma or tissue homogenate was spiked with 100 μL of internal standard solution (1 μg/mL for plasma, 0.2 μg/mL for tissue homogenate) and 300 μL of methanol added and vortex mixed for 60 s. The mixture was then centrifuged at 14,000 rpm at 4°C for 5.0 min, and the supernatant was diluted with methanol–water (4:1, v/v) in a ratio of 1:9 for the plasma or 1:1 for the tissue homogenate, and 5 μL of the resulting solution was injected for the LC-MS/MS analysis.
The pharmacokinetic parameters of SHR9146 in mouse plasma were estimated by Phoenix 1.4 software using a non-compartmental model.
The mean concentration–time curves of SHR9146 in mouse plasma after a single oral gavage dose of 20, 40, or 80 mg/kg, or a single intravenous dose of 5 mg/kg, or the 7th-day steady state after twice-daily multiple oral doses of 20 mg/kg are shown in Figure 5 (Table S6).

[1] = female, ICR, mouse, plasma, iv, 5 mg/kg, 5 mg/kg i.v. single dose, female mice, plasma
[2] = female, ICR, mouse, plasma, po, 20 mg/kg, 20 mg/kg i.g. bid, 7 days (7th-day steady state), female mice, plasma
[3] = female, ICR, mouse, plasma, po, 20 mg/kg, 20 mg/kg i.g. single dose, female mice, plasma
[4] = female, ICR, mouse, plasma, po, 40 mg/kg, 40 mg/kg i.g. single dose, female mice, plasma
[5] = female, ICR, mouse, plasma, po, 80 mg/kg, 80 mg/kg i.g. single dose, female mice, plasma
[6] = male, ICR, mouse, plasma, iv, 5 mg/kg, 5 mg/kg i.v. single dose, male mice, plasma
[7] = male, ICR, mouse, plasma, po, 20 mg/kg, 20 mg/kg i.g. bid, 7 days (7th-day steady state), male mice, plasma
[8] = male, ICR, mouse, plasma, po, 20 mg/kg, 20 mg/kg i.g. single dose, male mice, plasma
[9] = male, ICR, mouse, plasma, po, 40 mg/kg, 40 mg/kg i.g. single dose, male mice, plasma
[10] = male, ICR, mouse, plasma, po, 80 mg/kg, 80 mg/kg i.g. single dose, male mice, plasma
[11] = single oral dosing 20 to 80 mg/kg pooled, mouse plasma, n=6

`OCCn1cc(-c2ccc(N3CCC([C@H]4c5c(F)cccc5-c5cncn54)CC3)cc2)cn1` [SHR9146] gave an MRT inf (both sexes, ICR, mouse, po, 80 mg/kg i.g. single dose, all mice (Totol, 3 male + 3 female), plasma, read-out: MRT0-∞) of 4.6 h, an AUC(0-inf) (female, ICR, mouse, plasma, iv, 5 mg/kg, 5 mg/kg i.v. single dose, female mice) of 6910 ng·h/mL and an AUC(0-t) [1] of 6800 ng·h/mL. It also gave a half-life [1] of 0.665 h, an AUC(0-inf) (female, ICR, mouse, plasma, po, 20 mg/kg, 20 mg/kg i.g. bid, 7 days (7th-day steady state), female mice) of 24300 ng·h/mL and an AUC(0-t) [2] of 24200 ng·h/mL. The Cmax [2] was 10900 ± 737 ng/mL, the Tmax [2] was 0.833 ± 0.289 h and the half-life [2] was 0.951 h. For the same compound, the AUC(0-inf) (female, ICR, mouse, plasma, po, 20 mg/kg, 20 mg/kg i.g. single dose, female mice) was 17900 ng·h/mL, the AUC(0-t) [3] was 16800 ng·h/mL and the Cmax [3] was 9170 ± 4240 ng/mL. It also gave a Tmax [3] of 0.5 ± 0.433 h, a half-life [3] of 0.866 h and an AUC(0-t) [4] of 12400 ng·h/mL. It also gave a Cmax [4] of 9880 ± 3490 ng/mL, a Tmax [4] of 1.83 ± 1.89 h and an AUC(0-inf) (female, ICR, mouse, plasma, po, 80 mg/kg, 80 mg/kg i.g. single dose, female mice) of 65900 ng·h/mL. It also gave an AUC(0-t) [5] of 64700 ng·h/mL, a Cmax [5] of 18700 ± 7300 ng/mL and a Tmax [5] of 1.17 ± 0.764 h. It also gave a half-life [5] of 1.49 h, an AUC(0-inf) (male, ICR, mouse, plasma, iv, 5 mg/kg, 5 mg/kg i.v. single dose, male mice) of 6950 ng·h/mL and an AUC(0-t) [6] of 6730 ng·h/mL. The half-life [6] was 0.761 h, the AUC(0-inf) (male, ICR, mouse, plasma, po, 20 mg/kg, 20 mg/kg i.g. bid, 7 days (7th-day steady state), male mice) was 24400 ng·h/mL and the AUC(0-t) [7] was 24300 ng·h/mL. It also gave a Cmax [7] of 10500 ± 993 ng/mL, a Tmax [7] of 0.833 ± 0.289 h and a half-life [7] of 1.06 h. For the same compound, the AUC(0-inf) (male, ICR, mouse, plasma, po, 20 mg/kg, 20 mg/kg i.g. single dose, male mice) was 14600 ng·h/mL, the AUC(0-t) [8] was 14400 ng·h/mL and the Cmax [8] was 10000 ± 2370 ng/mL. It also gave a Tmax [8] of 0.417 ± 0.144 h, a half-life [8] of 0.531 h and an AUC(0-inf) (male, ICR, mouse, plasma, po, 40 mg/kg, 40 mg/kg i.g. single dose, male mice) of 33400 ng·h/mL. For the same compound, the AUC(0-t) [9] was 31000 ng·h/mL, the Cmax [9] was 15000 ± 3240 ng/mL and the Tmax [9] was 1.33 ± 0.577 h. For the same compound, the half-life [9] was 1.66 h, the AUC(0-inf) (male, ICR, mouse, plasma, po, 80 mg/kg, 80 mg/kg i.g. single dose, male mice) was 75900 ng·h/mL and the AUC(0-t) [10] was 75300 ng·h/mL. It also gave a Cmax [10] of 15500 ± 6150 ng/mL, a Tmax [10] of 1.83 ± 1.89 h and a half-life [10] of 3.3 h. The “Vd, post-oral” value (oral 20 to 80 mg/kg pooled, mouse plasma, n=6) was 3.427 ± 1.617 L/kg, the “dose dependence of oral pharmacokinetics” value (oral 20 to 80 mg/kg, mice, Cmax and AUC) was “dose proportionality; also recorded: linear pharmacokinetics characteristics; also recorded: dose-independent kinetics” and the “CL, post-oral” value [11] was 19.8 ± 0.9 mL/min/kg and 19.769 ± 0.866 mL/min/kg. The Vd, post-oral [11] was 3.43 ± 1.62 L/kg.

From paper PMC10410440, “Preclinical PK investigation of a novel IDO1/TDO dual inhibitor—SHR9146 in mouse plasma and tissues by LC-MS/MS” (Frontiers in Oncology, 2023)
